Reference: patent US7371867B2, “Non-racemic trifluoroleucine, and methods of making and using” (Trustees of Tufts College, priority 2001, dated 2008)

SMILES: CC(C)(C)OC(=O)N[C@@H](CC(C(F)(F)F)C(F)(F)F)C(=O)O [Peptide 5, N-Boc-5,5,5,5′,5′,5′-(S)-Hexafluoroleucine]
- melting point: 85 to 91 °C
